From US8790654B2, “Glycosylceramide adjuvant for saccharide antigens” (Novartis AG, priority 2004, dated 2014)
Entries after “also recorded” stand apart in the source; their conditions may differ.

Tests used:
Type in all cases: in vivo
[1] = tested on: S. pneumoniae polysaccharides; assay: S. pneumoniae-specific antibody titres by ELISA in mice immunised with Streptopur with or without α-GalCer
Hib = assay: Hib-specific Ig titre in mice immunised with Hib-HSA conjugate mixed with PBS, α-GalCer or MF59; conditions: 15 μg Hib-HSA conjugate mixed with α-GalCer, compared with Hib-HSA conjugate and PBS; three immunisations; 1wp2 and 1wp3
Description: FIG. 11: Antibody response is enhanced in mice immunised with α-GalCer and Hib-HSA conjugate. […] Each group of mice was immunised three times. The Hib-specific titre was measured 1 week post the second immunisation (1wp2) and 1 week post the third immunisation (1wp3).

MenA polysaccharide = assay: MenA-specific antibody titres in mice immunised with MenA polysaccharide or MenA-CRM conjugate with or without α-GalCer
Description: FIG. 6: α-GalCer enhances the immune response to a MenA-CRM conjugate. Mice were immunised with 10 μg MenA polysaccharide or MenA-CRM conjugate with or without α-GalCer. Antibodies titres against the MenA polysaccharide were measured 4, 8 and 12 days post priming. α-GalCer enhanced the immune response to the MenA polysaccharide.

MenC polysaccharide = assay: MenC-specific Ig titre in mice immunised with MenC, MenC+CRM or MenC-CRM conjugate with or without α-GalCer; conditions: 30 μg MenC-CRM conjugate and α-GalCer, compared with MenC-CRM conjugate and PBS; three immunisations
Description: C) Immunisation schedule for mice with different polysaccharides, plain, conjugated or admixed with protein carriers, with and without α-GalCer. Ten groups of wild-type C57BL/6 mice were primed on day 0 with: 1) PBS, 2) 0.1 μg with α-GalCer, 3) 10 μg MenC polysaccharide, 4) 20 μg CRM protein carrier, 5) 30 μg of a MenC-CRM conjugate, 6) 10 μg MenC polysaccharide admixed with CRM protein carrier, or the compositions in 3)-6) and α-GalCer (groups 7-10). Mice were boosted two and four weeks after they were primed with the same composition with which they were primed. Mice were bled 2, 4 and 6 weeks after initial priming (2wp1, 2wp2 and 2wp3) and the levels of antibodies against both the MenC polysaccharide and the CRM carrier were measured.
FIG. 5: α-GalCer enhances the specific antibody response against both the MenC polysaccharide and the CRM protein carrier in a MenC-CRM conjugate. Wild-type mice were primed with 10 μg MenC polysaccharide, 20 μg CRM protein carrier, 10 μg MenC polysaccharide admixed with CRM protein carrier (MenC+CRM), or 30 μg of a MenC-CRM conjugate, or the same compositions with α-GalCer. […]
FIG. 7: Antibody response is enhanced in mice immunised with α-GalCer and MenC-CRM conjugate. […] The MenC-specific titre was measured one week post the second immunisation (1wp2) and one week post third immunisation (1wp3).

[2] = tested on: S. pneumoniae-specific B cells; assay: Number of S. pneumoniae-specific B cells in spleens by Elispot; conditions: mice primed with 0.1 or 1.0 μg α-GalCer and boosted with 11.5 μg Streptopur 12 weeks later, compared with PBS prime and Streptopur boost; Elispot at 18-22 weeks

CCCCCCCCCCCCCCCCCCCCCCCCCC(=O)N[C@@H](CO[C@H]1O[C@H](CO)[C@H](O)[C@H](O)[C@H]1O)[C@H](O)[C@H](O)CCCCCCCCCCCCCC [α-GalCer, α-galactosylceramide]
S. pneumoniae specific IgM antibodies (geomean) by age of mice ([1]; 8 days after priming mice of different ages with 3.5 μg Streptopur and 0.1 μg α-GalCer, compared with Streptopur alone): suppresses; also recorded: suppression
S. pneumoniae-specific antibody titres in NKT-deficient mice ([1]; JA18−/−, CD1d−/− and CD1d−/+ mice primed with 3.5 μg Streptopur and 0.1 μg α-GalCer, compared with Streptopur alone, 4, 8, 12 days after priming): no significant difference
S. pneumoniae-specific antibody titers after boost ([1]; mice primed with Streptopur and 0.1 μg α-GalCer and boosted with Streptopur, compared with primed and boosted with Streptopur alone, 8 days after boosting): lower
S. pneumoniae-specific antibody titres (IgM, geomean) ([1]; wild-type C57BL/6 mice primed i.m. with Streptopur and 0.1 μg α-GalCer, compared with Streptopur alone, 4, 8, 12 days after priming): lower; also recorded: reduced
Hib-specific Ig titres (Hib): enhanced; also recorded: considerably higher
MenA-specific Ig titres (MenA polysaccharide; MenA-CRM conjugate and α-GalCer, compared with conjugate without α-GalCer, 4, 8, 12 days post priming): enhances; also recorded: increase
Inhibitory action on the response to unconjugated MenA saccharides (MenA polysaccharide; unconjugated MenA polysaccharide with α-GalCer): not observed
MenC-specific Ig titres (MenC polysaccharide): enhanced; also recorded: significant increase
Number of S. pneumoniae-specific B cells per 10^6 splenocytes [2]: lower numbers
